IC50 data for 24 compounds are collected here from patent publication US8906852B2 (MethylGene Inc., priority 2010, dated 2014).

pIC50: −log10 of the molar value. A value given as a limit tells only on which side of the number the result lay.

T1 sequence (P35968 806-1356): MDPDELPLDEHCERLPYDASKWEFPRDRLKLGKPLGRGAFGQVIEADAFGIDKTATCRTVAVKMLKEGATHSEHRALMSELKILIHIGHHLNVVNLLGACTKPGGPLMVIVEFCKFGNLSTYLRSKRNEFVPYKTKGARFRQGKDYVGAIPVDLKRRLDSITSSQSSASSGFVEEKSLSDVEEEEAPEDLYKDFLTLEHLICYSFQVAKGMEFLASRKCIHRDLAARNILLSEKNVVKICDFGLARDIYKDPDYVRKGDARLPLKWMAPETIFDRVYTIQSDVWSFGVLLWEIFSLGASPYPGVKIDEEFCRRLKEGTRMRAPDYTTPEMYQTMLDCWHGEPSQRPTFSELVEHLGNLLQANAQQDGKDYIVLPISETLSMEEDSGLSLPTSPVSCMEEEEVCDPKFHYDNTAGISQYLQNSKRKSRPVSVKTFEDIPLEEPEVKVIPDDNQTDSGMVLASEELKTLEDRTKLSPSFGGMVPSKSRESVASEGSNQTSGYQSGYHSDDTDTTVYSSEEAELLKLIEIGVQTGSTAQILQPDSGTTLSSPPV

The experiment addresses T1, VEGFR/KDR (Homo sapiens, UniProt P35968).
T1 construct: made in house; host or cells: Sf9 cells (Spodoptera frugiperda), baculovirus
In words: VEGFR/KDR kinase inhibition, DELFIA assay. It counts as biochemical. Conditions: ATP 0.6 uM (2x Km), enzyme 5 nM. Put shortly:
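Enzyme (5 nM) pre-incubated 4 min on ice with inhibitor and Mg-ATP (0.6 uM, 2× Km), then reacted 10-30 min at 30° C on immobilized poly(Glu4,Tyr). EDTA-quenched phosphotyrosine detected with Europium-labeled antibody by time-resolved fluorescence; IC50 from concentration series.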
Compound `C[C@H](CN1CCN(Cc2ccc(-c3cc4nccc(Oc5ccc(NC(=O)NC6CC6)cc5F)c4s3)nc2)CC1)C(=O)O` [Compound 574] showed a pIC50 of over 7.30.

As for `O=C(O)CC(=O)N1CCN(Cc2ccc(-c3cc4nccc(Oc5ccc(NC(=O)NC6CC6)cc5F)c4s3)nc2)CC1` [Compound 510, 3-(4-((6-(7-(4-(3-cyclopropylureido)-2-fluorophenoxy)thieno[3,2-b]pyridin-2-yl)pyridin-3-yl)methyl)piperazin-1-yl)-3-oxopropanoic acid], the pIC50 was over 7.30.

Compound `Cc1cc(NCc2ccc(-c3cc4nccc(Oc5ccc(NC(=O)NC6CC6)cc5F)c4s3)nc2)n[nH]1` [Compound 333, 1-Cyclopropyl-3-(3-fluoro-4-(2-(5-((5-methyl-1H-pyrazol-3-ylamino)methyl)pyridin-2-yl)thieno[3,2-b]pyridin-7-yloxy)phenyl)urea] gave a negative logarithm of the IC50 (pIC50) of over 7.30.

As for `CN(C)CCCc1ccc(NCc2ccc(-c3cc4nccc(Oc5ccc(NC(=O)NC6CC6)cc5F)c4s3)nc2)cc1` [Compound 339, 1-cyclopropyl-3-(4-(2-(5-((4-(3-(dimethylamino)propyl)phenylamino)methyl)pyridin-2-yl)thieno[3,2-b]pyridin-7-yloxy)-3-fluorophenyl)urea], the pIC50 is over 7.30.

Compound `O=C(O)CCNC(=O)NC1CCN(Cc2ccc(-c3cc4nccc(Oc5ccc(NC(=O)NC6CC6)cc5F)c4s3)nc2)CC1` [Compound 429] gave a pIC50 of at most 6.60.

Compound `CC(C)(C)OC(=O)N[C@H]1CCN(Cc2ccc(-c3cc4nccc(Oc5ccc(NC(=O)NC6CC6)cc5F)c4s3)nc2)C1` [Compound 480, (S)-tert-butyl 1-((6-(7-(4-(3-cyclopropylureido)-2-fluorophenoxy)thieno[3,2-b]pyridin-2-yl)pyridin-3-yl)methyl)pyrrolidin-3-ylcarbamate] had a negative logarithm of the IC50 (pIC50) of over 7.30.

In the case of `COCCN(Cc1ccc(-c2cc3nccc(Oc4ccc(NC(=O)NC5CC5)nc4)c3s2)nc1)C(C)=O` [Compound 40, N-((6-(7-(6-(3-cyclopropylureido)-pyridin-3-yloxy)thieno[3,2-b]-pyridirin-2-yl)pyridin-3-yl)methyl)-N-(2-methoxyethyl)-acetamide], the negative-log IC50 (pIC50) is 7.00 to 7.30.

For the compound `O=C(Nc1ccc(Oc2ccnc3cc(-c4ccc(CN5CCC[C@H]5C(=O)NCCO)cn4)sc23)c(F)c1)NC1CC1` [Compound 485, (S)-1-((6-(7-(4-(3-cyclopropylureido)-2-fluorophenoxy)thieno[3,2-b]pyridin-2-yl)pyridin-3-yl)methyl)-N-(2-hydroxyethyl)pyrrolidine-2-carboxamide], the negative logarithm of the IC50 (pIC50) is over 7.30.

Turning to `COC(=O)CCn1cc(-c2cc3nccc(Oc4ccc(NC(=O)NC5CC5)cc4F)c3s2)nn1` [Compound 369], the pIC50 is over 7.30.

The compound `CCCCOC(=O)C1CN(C(=O)c2ccc(-c3cc4nccc(Oc5ccc(NC(=O)NC6CC6)cc5F)c4s3)nc2)CCO1` (stereo not drawn) [Compound 238, butyl 4-(6-(7-(4-(3-cyclopropylureido)-2-fluorophenoxy)thieno[3,2-b]pyridin-2-yl)nicotinoyl)morpholine-2-carboxylate] showed a negative logarithm of the IC50 (pIC50) of over 7.30.

For `O=C(Nc1ccc(Oc2ccnc3cc(-c4ccc(CN5CCN(Cc6ccncc6)CC5)cn4)sc23)c(F)c1)NC1CC1` [Compound 325, 1-cyclopropyl-3-(3-fluoro-4-(2-(5-((4-(pyridin-4-ylmethyl)piperazin-1-yl)methyl)pyridin-2-yl)thieno[3,2-b]pyridin-7-yloxy)phenyl)urea], the pIC50 is over 7.30.

Take `COCCN(CCOC)Cc1ccc(-c2cc3nccc(Oc4ccc(NC(=O)NC5CC5)cc4F)c3s2)nc1` [Compound 50, 1-(4-(2-(5-((bis(2-methoxyethyl)amino)methyl)pyridin-2-yl)thieno[3,2-b]-pyridin-7-yloxy)-3-fluorophenyl)-3-cyclopropylurea]: the pIC50 was over 7.30.

In turn, `CN1CCN(C(=O)CCn2cc(-c3cc4nccc(Oc5ccc(NC(=O)NC6CC6)cc5F)c4s3)nn2)CC1` [Compound 378] gave a pIC50 of over 7.30.

`O=C(CO)NC1CCN(Cc2ccc(-c3cc4nccc(Oc5ccc(NC(=O)NC6CC6)cc5F)c4s3)nc2)CC1` [Compound 346] gave a negative logarithm of the IC50 (pIC50) of over 7.30.

The compound `CC(=O)N(CCO)Cc1ccc(-c2cc3nccc(Oc4ccc(NC(=O)NC5CC5)cc4F)c3s2)nc1` [Compound 10, N-((6-(7-(4-(3-cyclopropylureido)-2-fluorophenoxy)thieno[3,2-b]pyridin-2-yl)pyridin-3-yl)methyl)-N-(2-hydroxyethyl)acetamide] gave a negative-log IC50 (pIC50) of over 7.30.

Compound `CC(C)(C)C(=O)O[C@H]1CCN(C(=O)c2cc3nccc(Oc4ccc(NC(=O)NC5CC5)cc4F)c3s2)C1` [Compound 448] had a negative-log IC50 (pIC50) of 6.60 to 7.00.

Turning to `CC1(C)CN(Cc2ccc(-c3cc4nccc(Oc5ccc(NC(=O)NC6CC6)cc5F)c4s3)nc2)CCN1` [Compound 496, 1-cyclopropyl-3-(4-(2-(5-((3,3-dimethylpiperazin-1-yl)methyl)pyridin-2-yl)thieno[3,2-b]pyridin-7-yloxy)-3-fluorophenyl)urea], the negative-log IC50 (pIC50) is over 7.30.

Regarding `CCOC(=O)CC(N1CCN(Cc2ccc(-c3cc4nccc(Oc5ccc(NC(=O)NC6CC6)cc5F)c4s3)nc2)CC1)C(F)(F)F` (stereo not drawn) [Compound 509, ethyl 3-(4-((6-(7-(4-(3-cyclopropylureido)-2-fluorophenoxy)thieno[3,2-b]pyridin-2-yl)pyridin-3-yl)methyl)piperazin-1-yl)-4,4,4-trifluorobutanoate], the pIC50 is over 7.30.

In the case of `O=C(O)CCN1CCN(Cc2ccc(-c3cc4nccc(Oc5ccc(NC(=O)NC6CC6)c(F)c5F)c4s3)nc2)CC1` [Compound 172, 3-(4-((6-(7-(4-(3-cyclopropylureido)-2,3-difluorophenoxy)thieno-[3,2-b]pyridin-2-yl)pyridin-3-yl)methyl)piperazin-1-yl)propanoic acid], the negative logarithm of the IC50 (pIC50) was over 7.30.

`CN1CCN(C(=O)C2CCCN(Cc3ccc(-c4cc5nccc(Oc6ccc(NC(=O)NC7CC7)cc6F)c5s4)nc3)C2)CC1` (stereo not drawn) [Compound 493, 1-cyclopropyl-3-(3-fluoro-4-(2-(5-((3-(4-methylpiperazine-1-carbonyl)piperidin-1-yl)methyl)pyridin-2-yl)thieno[3,2-b]pyridin-7-yloxy)phenyl)urea] showed a negative logarithm of the IC50 (pIC50) of over 7.30.

`CC(C)(CO)C(=O)N1CCN(Cc2ccc(-c3cc4nccc(Oc5ccc(NC(=O)NC6CC6)cc5F)c4s3)nc2)CC1` [Compound 537] gave a negative-log IC50 (pIC50) of over 7.30.

For `O=C(Nc1ccc(Oc2ccnc3cc(-c4cn(CCN5CCCC5=O)cn4)sc23)c(F)c1)NC1CC1` [Compound 267, 1-cyclopropyl-3-(3-fluoro-4-(2-(1-(2-(2-oxopyrrolidin-1-yl)ethyl)-1H-imidazol-4-yl)thieno[3,2-b]pyridin-7-yloxy)phenyl)urea], the pIC50 is over 7.30.

The compound `COCCN(Cc1ccc(-c2cc3nccc(Oc4ccc(NC(=O)NC5CC5)cc4F)c3s2)nc1)C(=O)N(C)C` [Compound 4, N-[3-((6-(7-(4-(3-cyclopropylureido)-2-fluorophenoxy)thieno[3,2-b]pyridin-2-yl)pyridin-3-yl)methyl)]-N-(1,1-dimethyl)-N-[3-(2-methoxyethyl)]urea] had a negative-log IC50 (pIC50) of over 7.30.

As to `O=C(Nc1ccc(Oc2ccnc3cc(-c4ccc(C(=O)N5CCOC(C(=O)O)C5)cn4)sc23)c(F)c1)NC1CC1` (stereo not drawn) [Compound 241, 4-(6-(7-(4-(3-cyclopropylureido)-2-fluorophenoxy)thieno[3,2-b]-pyridin-2-yl)nicotinoyl)morpholine-2-carboxylic acid], the pIC50 is over 7.30.

As a reminder, the pIC50 is −log10 of the IC50, conventionally taken in molar units. A higher pIC50 goes with a small IC50.
